Among the data in paper doi:10.1101/2020.05.29.122762v3 (biorxiv, 2020) are Kd values, retold here.

Test [1] has as its target type PO SadP-6407(31-328). Particulars: PBS, 25 °C.
Test [2] concerns the target T1, type PN SadP-D282(31-328) (Streptococcus suis, UniProt G5DSS1).
T1 sequence (G5DSS1 31-328): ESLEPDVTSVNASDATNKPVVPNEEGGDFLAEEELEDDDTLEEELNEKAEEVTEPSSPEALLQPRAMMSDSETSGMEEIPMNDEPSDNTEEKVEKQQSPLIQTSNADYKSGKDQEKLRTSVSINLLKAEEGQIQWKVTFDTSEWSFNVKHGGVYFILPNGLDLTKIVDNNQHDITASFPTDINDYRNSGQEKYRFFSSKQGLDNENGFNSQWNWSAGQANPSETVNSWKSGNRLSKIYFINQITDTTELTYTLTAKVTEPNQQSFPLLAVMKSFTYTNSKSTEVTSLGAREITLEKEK
Particulars: PBS, 25 °C; n=1.14.

For test [3], the target named is T2, type PN SadP(125-329) (Streptococcus suis, UniProt G5DSS1).
T2 sequence (G5DSS1 125-329): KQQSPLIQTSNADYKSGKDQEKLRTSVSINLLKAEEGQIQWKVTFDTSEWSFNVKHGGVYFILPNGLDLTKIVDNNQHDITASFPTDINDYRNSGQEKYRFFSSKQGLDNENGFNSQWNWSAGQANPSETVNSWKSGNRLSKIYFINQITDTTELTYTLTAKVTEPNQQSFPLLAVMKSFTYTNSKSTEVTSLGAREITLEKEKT
Kind of test: biochemical.

Test [4] has as its target type PN SadP(125-329) (Streptococcus suis, UniProt G5DSS1, N271D). In words: biochemical.

By Kd is commonly meant a measure of binding affinity in units of concentration.

Read-outs that look alike come from different tables or passages of the source.

For the molecule `CC(=O)N[C@H]1[C@H](O[C@H]2[C@@H](O)[C@@H](CO)O[C@H](O[C@@H]3[C@H](O)[C@@H](O)[C@H](OCC[Si](C)(C)C)O[C@@H]3CO)[C@@H]2O)O[C@H](CO)[C@H](O)[C@@H]1O` [GalNAcβ1–3Galα1–4Gal TMSEt glycoside], the Kd in test [1] (n=0.13, poorly defined fit) stood at 940 ± 680 µM; in test [2], 33.7 ± 3.5 µM; at type PN SadP(125-329) [3], 36 ± 4.8 µM.
For `C[Si](C)(C)CCO[C@@H]1O[C@H](CO)[C@H](O[C@H]2O[C@H](CO)[C@H](O)[C@H](O)[C@H]2O)[C@H](O)[C@H]1O` [Galα1–4Gal TMSEt glycoside], the Kd was 3.5 ± 1.6 µM in test [1] (n=0.85) and 22.7 ± 7.2 µM on type PN SadP(125-329) [4].
